Some test systems named below: 786-0 renal; DU-145 prostate; MDA-MB-231 breast; MOLT-4 leukemia; NCI-H460 lung; NCI/ADR-RES ovarian; OVCAR-8 ovarian; PC-3 prostate; SF-268 CNS; UACC-62 melanoma.
What all share (assay): DTP human tumour cell line panel, 48 h

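Grown in 96-well plates, cells were treated for 48 hours with each compound at five concentrations. Insufficient inhibition: endpoint recorded as highest concentration tested. At the GI50, growth is halved. TGI: concentration producing complete growth inhibition.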

The source of these data is PubChem BioAssay (NCI).

For `COc1ccccc1-c1ccc2c(N)c(C(=O)c3ccc4c(c3)OCO4)sc2n1`, the GI50 (commonly the concentration at which growth is held to half of that of the control) is 2.78 µM in the experiment with 786-0 renal; 15 µM in the experiment on DU-145 prostate; 2.81 µM with MDA-MB-231 breast; 4.98 µM in the experiment with MOLT-4 leukemia; 4.04 µM in the experiment on NCI-H460 lung; 4.13 µM in the experiment with NCI/ADR-RES ovarian. Also, the GI50 in the experiment on OVCAR-8 ovarian is 4.57 µM; in the experiment on PC-3 prostate it was 10.6 µM; in the experiment on SF-268 CNS, 7.55 µM; with UACC-62 melanoma, 4.12 µM. For the same compound, the total growth inhibition concentration (TGI) (as a rule, the concentration giving total growth inhibition) in the experiment with 786-0 renal was 11.3 µM; in the experiment with DU-145 prostate, 42.6 µM; in the experiment on MDA-MB-231 breast, 8.59 µM; in the experiment on MOLT-4 leukemia it was more than 100 µM; in the experiment with NCI-H460 lung, 16.7 µM; in the experiment on NCI/ADR-RES ovarian it was 16.7 µM. The TGI in the experiment with OVCAR-8 ovarian was determined as 16.7 µM; in the experiment with PC-3 prostate, 40.3 µM; with SF-268 CNS it was 32.4 µM; in the experiment with UACC-62 melanoma, 18.6 µM.
On to `CCOP(=O)(OCC)C(NC(c1ccccc1)c1ccccc1)c1ccsc1` (stereo not given), for which the GI50 with 786-0 renal is 17.2 µM; with DU-145 prostate it was 19.1 µM; with MDA-MB-231 breast, 7.05 µM; in the experiment with MOLT-4 leukemia, 25.4 µM; in the experiment on NCI-H460 lung it was 18.7 µM; in the experiment with NCI/ADR-RES ovarian, 14.4 µM. For the same compound, the GI50 with OVCAR-8 ovarian was 23.5 µM; in the experiment with PC-3 prostate, 10.9 µM; with SF-268 CNS it was 15.5 µM; with UACC-62 melanoma, 12.8 µM. Moreover, the TGI was 31.4 µM in the experiment with 786-0 renal; 35.5 µM with DU-145 prostate; 20.5 µM in the experiment on MDA-MB-231 breast; more than 100 µM in the experiment on MOLT-4 leukemia; 53.7 µM in the experiment with NCI-H460 lung; 29.7 µM in the experiment on NCI/ADR-RES ovarian. The concentration for total growth inhibition (TGI) in the experiment with OVCAR-8 ovarian was 57 µM; with PC-3 prostate, 23.9 µM; with SF-268 CNS, 36.2 µM; in the experiment with UACC-62 melanoma, 25.5 µM.
Consider `N#Cc1ccc(O)c(C2=NCC(c3ccc(-c4ccccc4)cc3)O2)c1` (stereo not given), for which the GI50 in the experiment with 786-0 renal was 0.626 µM; in the experiment with DU-145 prostate, 0.732 µM; in the experiment with MDA-MB-231 breast it was 0.823 µM; in the experiment with MOLT-4 leukemia it was 0.482 µM; in the experiment with NCI-H460 lung, 0.279 µM; in the experiment on NCI/ADR-RES ovarian, 0.148 µM. Besides, the 50% growth inhibitory concentration (GI50) with OVCAR-8 ovarian was 0.361 µM; in the experiment on PC-3 prostate, 0.471 µM; in the experiment with SF-268 CNS, 0.499 µM; in the experiment with UACC-62 melanoma, 0.407 µM. In addition, the total growth inhibition concentration (TGI) with 786-0 renal stood at 11.9 µM; in the experiment with DU-145 prostate, 16 µM; in the experiment on MDA-MB-231 breast, 18.5 µM; in the experiment on MOLT-4 leukemia, 27.7 µM; with NCI-H460 lung, 8.75 µM; in the experiment on NCI/ADR-RES ovarian it was 5.7 µM. The TGI turned out to be 13 µM in the experiment with OVCAR-8 ovarian, 22.8 µM in the experiment on PC-3 prostate, 16.1 µM in the experiment on SF-268 CNS and 1.61 µM in the experiment on UACC-62 melanoma.
With `Cc1cnc(-c2ccc(-c3ccc(NC(=O)Nc4cccc(C(F)(F)F)c4)cc3F)c3c2C(=O)NC3)[nH]1`, the GI50 in the experiment on 786-0 renal is 16.8 µM; in the experiment with DU-145 prostate it was 11.5 µM; with MDA-MB-231 breast, 26 µM; in the experiment with MOLT-4 leukemia it was 1.37 µM; in the experiment on NCI-H460 lung it was 0.304 µM; in the experiment on NCI/ADR-RES ovarian, 31.4 µM. Also, the GI50 in the experiment on OVCAR-8 ovarian is 14.6 µM; with PC-3 prostate, 15.7 µM; with SF-268 CNS it was 11.4 µM; in the experiment on UACC-62 melanoma, 9.61 µM. In addition, the TGI with 786-0 renal is more than 51.8 µM; in the experiment on DU-145 prostate, 35.6 µM; in the experiment on MDA-MB-231 breast it was more than 57.3 µM; in the experiment with MOLT-4 leukemia, more than 53.4 µM; in the experiment with NCI-H460 lung it was 26.8 µM; in the experiment on NCI/ADR-RES ovarian, more than 100 µM. For the same compound, the TGI in the experiment on OVCAR-8 ovarian was more than 57.8 µM; with PC-3 prostate, more than 50.6 µM; in the experiment on SF-268 CNS it was more than 48.1 µM; in the experiment on UACC-62 melanoma it was 35.5 µM.
For the compound `CN1CCN(C(=O)[C@@]2(C)CC[C@]3(C)CC[C@]4(C)C(=CC[C@@H]5[C@@]6(C)CC[C@H](OC(=O)c7cccnc7)C(C)(C)[C@@H]6CC[C@]54C)[C@@H]3C2)CC1`, the GI50 with 786-0 renal is 1.75 µM; with DU-145 prostate, 1.81 µM; in the experiment on MDA-MB-231 breast it was 2.03 µM; in the experiment with MOLT-4 leukemia it was 1.92 µM; in the experiment with NCI-H460 lung it was 1.78 µM; in the experiment on NCI/ADR-RES ovarian, 1.75 µM. Further, the GI50 in the experiment on OVCAR-8 ovarian was 2.06 µM; in the experiment on PC-3 prostate, 1.61 µM; in the experiment on SF-268 CNS it was 1.84 µM; in the experiment on UACC-62 melanoma, 1.84 µM. Besides, the TGI in the experiment on 786-0 renal is 3.22 µM; in the experiment on DU-145 prostate, 3.51 µM; in the experiment on MDA-MB-231 breast, 3.95 µM; with MOLT-4 leukemia, 4.78 µM; with NCI-H460 lung, 3.33 µM; with NCI/ADR-RES ovarian, 3.72 µM. The total growth inhibition concentration (TGI) in the experiment with OVCAR-8 ovarian turned out to be 4.3 µM; with PC-3 prostate it was 3.54 µM; in the experiment with SF-268 CNS, 3.85 µM; in the experiment on UACC-62 melanoma it was 3.46 µM.
`O=C(C(=O)c1cccnc1)c1cccnc1`: the GI50 in the experiment with 786-0 renal, in the experiment on DU-145 prostate, with MDA-MB-231 breast, in the experiment with MOLT-4 leukemia, with NCI-H460 lung and in the experiment on NCI/ADR-RES ovarian was more than 100 µM in each case. In addition, the GI50 in the experiment with OVCAR-8 ovarian, in the experiment with PC-3 prostate, in the experiment with SF-268 CNS and with UACC-62 melanoma was more than 100 µM throughout. Further, the total growth inhibition concentration (TGI) in the experiment with 786-0 renal, with DU-145 prostate, in the experiment on MDA-MB-231 breast, with MOLT-4 leukemia, in the experiment with NCI-H460 lung and in the experiment with NCI/ADR-RES ovarian was more than 100 µM each time. In addition, the concentration for total growth inhibition (TGI) with OVCAR-8 ovarian, in the experiment with PC-3 prostate, in the experiment on SF-268 CNS and with UACC-62 melanoma was more than 100 µM in each case.
